Measurements as given in patent US9255100B2 (BAYER INTELLECTUAL PROPERTY GMBH, priority 2010, dated 2016).

These compounds were tested against T1, N-terminally GST-tagged human full length recombinant Mps-1 kinase (Homo sapiens, UniProt P33981) (assay: Mps-1 kinase assay (TR-FRET)). Conditions: Mps1 IC50 [nM], 10 μM ATP, 1 μM peptide substrate, 60 min at 22° C.
T1 construct: N-terminally GST-tagged human full length recombinant Mps-1 kinase; purchased Invitrogen, Karslruhe, Germany PV4071
T1 sequence (P33981 1-857): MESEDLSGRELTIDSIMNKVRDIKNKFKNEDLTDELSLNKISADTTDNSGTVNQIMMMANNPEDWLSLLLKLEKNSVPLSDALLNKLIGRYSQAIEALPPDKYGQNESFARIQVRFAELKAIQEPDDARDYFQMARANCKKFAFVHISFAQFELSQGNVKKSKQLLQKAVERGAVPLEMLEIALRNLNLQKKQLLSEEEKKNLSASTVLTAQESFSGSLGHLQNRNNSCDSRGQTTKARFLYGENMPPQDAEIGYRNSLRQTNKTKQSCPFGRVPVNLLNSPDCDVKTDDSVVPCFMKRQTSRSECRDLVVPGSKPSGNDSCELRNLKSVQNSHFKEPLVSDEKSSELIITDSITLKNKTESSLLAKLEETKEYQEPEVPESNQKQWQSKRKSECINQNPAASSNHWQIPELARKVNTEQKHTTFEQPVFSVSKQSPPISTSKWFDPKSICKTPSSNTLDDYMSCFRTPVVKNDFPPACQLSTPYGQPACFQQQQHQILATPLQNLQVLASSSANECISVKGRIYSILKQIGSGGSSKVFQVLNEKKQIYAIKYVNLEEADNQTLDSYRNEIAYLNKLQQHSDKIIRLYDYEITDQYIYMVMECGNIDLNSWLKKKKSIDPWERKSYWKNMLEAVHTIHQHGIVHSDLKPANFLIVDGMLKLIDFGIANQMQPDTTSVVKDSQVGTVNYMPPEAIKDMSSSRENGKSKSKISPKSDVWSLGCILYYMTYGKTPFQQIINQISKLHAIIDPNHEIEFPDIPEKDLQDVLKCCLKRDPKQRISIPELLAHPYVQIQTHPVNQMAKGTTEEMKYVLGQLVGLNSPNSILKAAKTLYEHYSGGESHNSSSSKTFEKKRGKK
Format: biochemical
How it was run: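 Kinase activity of N-terminally GST-tagged full-length recombinant Mps-1, used at about 1 nM final and set within the linear range, was measured on a biotinylated peptide substrate. Phosphopeptide was detected by TR-FRET from Eu-anti-phospho(Ser/Thr) antibody to streptavidin-XLent after 1 h at 22° C.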

SMILES | IC50
Cc1cc(-c2cnc3c(NCC(C)(C)O)cc(O/C=C(/F)C(F)(F)CO)nn23)ccc1C(=O)NC1CC1 [Example 241B, N-cyclopropyl-4-(8-[(2-hydroxy-2-methylpropyl)amino]-6-{[(1E)-2,3,3-trifluoro-4-hydroxybut-1-en-1-yl]oxy}imidazo[1,2-b]pyridazin-3-yl)-2-methylbenzamide] | 3.4 nM
Cc1cc(-c2cnc3c(NCC(C)(C)O)cc(Sc4ccc(C(F)(F)F)cc4)nn23)ccc1C(=O)NC1CC1 [Example 242, N-cyclopropyl-4-(8-[(2-hydroxy-2-methylpropyl)amino]-6-{[4-(trifluoromethyl)phenyl]sulfanyl}imidazo[1,2-b]pyridazin-3-yl)-2-methylbenzamide] | 3.7 nM
CC(C)(O)CNc1cc(Oc2ccccc2)nn2c(-c3ccc(C(=S)NC4CC4)cc3)cnc12 [Example 243, N-cyclopropyl-4-{8-[(2-hydroxy-2-methylpropyl)amino]-6-phenoxyimidazo[1,2-b]pyridazin-3-yl}benzenecarbothioamide] | 0.9 nM
CC(C)(O)CNc1cc(Oc2cccc(F)c2)nn2c(-c3ccc(C(=S)NC4CC4)cc3)cnc12 [Example 244, N-cyclopropyl-4-{6-(3-fluorophenoxy)-8-[(2-hydroxy-2-methylpropyl)amino]imidazo[1,2-b]pyridazin-3-yl}benzenecarbothioamide] | 0.3 nM
CC(C)(O)CNc1cc(Sc2ccccc2)nn2c(-c3ccc(C(=S)NC4CC4)cc3)cnc12 [Example 245, N-cyclopropyl-4-{8-[(2-hydroxy-2-methylpropyl)amino]-6-(phenylsulfanyl)imidazo[1,2-b]pyridazin-3-yl}benzenecarbothioamide] | 0.7 nM
CC(C)(O)CNc1cc(Sc2cccc(F)c2)nn2c(-c3ccc(C(=S)NC4CC4)cc3)cnc12 [Example 246, N-cyclopropyl-4-{6-[(3-fluorophenyl)sulfanyl]-8-[(2-hydroxy-2-methylpropyl)amino]imidazo[1,2-b]pyridazin-3-yl}benzenecarbothioamide] | 0.6 nM
Cc1cc(-c2cnc3c(NCCC(F)(F)F)cc(Sc4ccc(C(F)(F)F)cc4)nn23)ccc1C(=O)NC1CC1 [Example 247, N-cyclopropyl-2-methyl-4-(6-{[4-(trifluoromethyl)phenyl]sulfanyl}-8-[(3,3,3-trifluoropropyl)amino]imidazo[1,2-b]pyridazin-3-yl)benzamide] | 1.7 nM
Cc1cc(-c2cnc3c(NCC(C)(C)O)cc(Sc4cc(F)ccc4F)nn23)ccc1C(=O)NC1CC1 [Example 248, N-cyclopropyl-4-{6-[(2,5-difluorophenyl)sulfanyl]-8-[(2-hydroxy-2-methylpropyl)amino]imidazo[1,2-b]pyridazin-3-yl}-2-methylbenzamide] | 0.5 nM
Cc1cc(-c2cnc3c(NCCC(F)(F)F)cc(Sc4ccc(F)c(F)c4)nn23)ccc1C(=O)NC1CC1 [Example 249, N-cyclopropyl-4-{6-[(3,4-difluorophenyl)sulfanyl]-8-[(3,3,3-trifluoropropyl)amino]imidazo[1,2-b]pyridazin-3-yl}-2-methylbenzamide] | 0.2 nM
Cc1cc(-c2cnc3c(NCCC(F)(F)F)cc(Sc4ccc(F)cc4)nn23)ccc1C(=O)NC1CC1 [Example 250, N-cyclopropyl-4-{6-[(4-fluorophenyl)sulfanyl]-8-[(3,3,3-trifluoropropyl)amino]imidazo[1,2-b]pyridazin-3-yl}-2-methylbenzamide] | 0.3 nM
Cc1cc(-c2cnc3c(NCCC(F)(F)F)cc(Sc4cc(F)cc(F)c4)nn23)ccc1C(=O)NC1CC1 [Example 251, N-cyclopropyl-4-{6-[(3,5-difluorophenyl)sulfanyl]-8-[(3,3,3-trifluoropropyl)amino]imidazo[1,2-b]pyridazin-3-yl}-2-methylbenzamide] | 0.2 nM
Cc1cc(-c2cnc3c(NCCC(F)(F)F)cc(Sc4cccc(F)c4F)nn23)ccc1C(=O)NC1CC1 [Example 252, N-cyclopropyl-4-{6-[(2,3-difluorophenyl)sulfanyl]-8-[(3,3,3-trifluoropropyl)amino]imidazo[1,2-b]pyridazin-3-yl}-2-methylbenzamide] | 0.2 nM
Cc1cc(-c2cnc3c(NCC(C)(C)O)cc(Oc4ccc(F)cc4)nn23)ccc1C(=O)NC1CC1 [Example 253, N-cyclopropyl-4-{6-(4-fluorophenoxy)-8-[(2-hydroxy-2-methylpropyl)amino]imidazo[1,2-b]pyridazin-3-yl}-2-methylbenzamide] | 0.3 nM
Cc1cc(-c2cnc3c(NCC(C)(C)O)cc(Oc4ccc(F)c(F)c4)nn23)ccc1C(=O)NC1CC1 [Example 254, N-cyclopropyl-4-{6-(3,4-difluorophenoxy)-8-[(2-hydroxy-2-methylpropyl)amino]imidazo[1,2-b]pyridazin-3-yl}-2-methylbenzamide] | 0.1 nM
Cc1cc(-c2cnc3c(NCCC(F)(F)F)cc(Sc4cc(F)ccc4F)nn23)ccc1C(=O)NC1CC1 [Example 255, N-cyclopropyl-4-{6-[(2,5-difluorophenyl)sulfanyl]-8-[(3,3,3-trifluoropropyl)amino]imidazo[1,2-b]pyridazin-3-yl}-2-methylbenzamide] | 0.2 nM
Cc1cc(-c2cnc3c(NCC(C)(C)O)cc(Oc4ccc(OC(C)C)cc4)nn23)ccc1C(=O)NC1CC1 [Example 256, N-cyclopropyl-4-{8-[(2-hydroxy-2-methylpropyl)amino]-6-(4-isopropoxyphenoxy)imidazo[1,2-b]pyridazin-3-yl}-2-methylbenzamide] | 0.2 nM
Cc1cc(-c2cnc3c(NCCC(F)(F)F)cc(Oc4ccc(OC(C)C)cc4)nn23)ccc1C(=O)NC1CC1 [Example 257, N-cyclopropyl-4-{6-(4-isopropoxyphenoxy)-8-[(3,3,3-trifluoropropyl)amino]imidazo[1,2-b]pyridazin-3-yl}-2-methylbenzamide] | 0.4 nM
Cc1cc(-c2cnc3c(NCCC(F)(F)F)cc(Oc4cccc(F)c4F)nn23)ccc1C(=O)NC1CC1 [Example 258, N-cyclopropyl-4-{6-(2,3-difluorophenoxy)-8-[(3,3,3-trifluoropropyl)amino]imidazo[1,2-b]pyridazin-3-yl}-2-methylbenzamide] | 0.2 nM
Cc1ccc(F)c(Oc2cc(NCCC(F)(F)F)c3ncc(-c4ccc(C(=O)NC5CC5)c(C)c4)n3n2)c1 [Example 259, N-cyclopropyl-4-{6-(2-fluoro-5-methylphenoxy)-8-[(3,3,3-trifluoropropyl)amino]imidazo[1,2-b]pyridazin-3-yl}-2-methylbenzamide] | 0.3 nM
Cc1cc(-c2cnc3c(NCCC(F)(F)F)cc(Oc4ccc(F)c(F)c4)nn23)ccc1C(=O)NC1CC1 [Example 260, N-cyclopropyl-4-{6-(3,4-difluorophenoxy)-8-[(3,3,3-trifluoropropyl)amino]imidazo[1,2-b]pyridazin-3-yl}-2-methylbenzamide] | 0.2 nM
Cc1cc(-c2cnc3c(NCC(C)(C)O)cc(Sc4cccs4)nn23)ccc1C(=O)NC1CC1 [Example 261, N-cyclopropyl-4-{8-[(2-hydroxy-2-methylpropyl)amino]-6-(2-thienylsulfanyl)imidazo[1,2-b]pyridazin-3-yl}-2-methylbenzamide] | 0.5 nM
Cc1cc(-c2cnc3c(NCC(C)(C)O)cc(Oc4cc(F)cc(F)c4)nn23)ccc1C(=O)NC1CC1 [Example 262, N-cyclopropyl-4-{6-(3,5-difluorophenoxy)-8-[(2-hydroxy-2-methylpropyl)amino]imidazo[1,2-b]pyridazin-3-yl}-2-methylbenzamide] | 0.2 nM
